Measured values as given in patent US8377943B2, “2,4-diaminopyrimidine derivates as PTK2-inhibitors for the treatment of abnormal cell growth” (Boehringer Ingelheim International GmbH, priority 2008, dated 2013).

Columns and labels:
[1] = target: T1, PTK2 (Homo sapiens, UniProt Q05397); experiment: PTK2 Enzyme Test (DELFIA assay, poly-Glu-Tyr substrate); format: biochemical; settings: active PTK2 enzyme, 50 μM ATP in ATP Mix, 1 h pre-incubation
T1 construct: purchased Invitrogen PV3832
Procedure: This test uses active PTK2 enzyme (Invitrogen Code PV3832) and poly-Glu-Tyr (4:1, Sigma P-0275) as the kinase substrate. The kinase activity is detected by means of the phosphorylation of the substrate in a DELFIA™ assay. The phosphorylated substrate is detected with the Europium-labelled phosphotyrosine antibody PY20 (Perkin Elmer, No.: AD0038).
In order to determine concentration-activity curves with PTK2-inhibitors the compounds are serially diluted in 10% DMSO/H2O and 10 μL of each dilution are dispensed per well in a 96-well microtitre plate (clear U-shaped base plate, Greiner No. 650101) (the inhibitors are tested in duplicates) and mixed with 10 μL/well of PTK2 kinase (0.01 μg/well). PTK2 kinase is diluted accordingly beforehand with kinase dilution buffer (20 mM TRIS/HCl pH 7.5, 0.1 mM EDTA, 0.1 mM EGTA, 0.286 mM sodium orthovanadate, 10% glycerol with the addition of freshly prepared BSA (fraction V 1 mg/mL) and DTT (1 mM)). The test compound and the PTK2 kinase are pre-incubated for 1 h at RT and shaken at 500 rpm. Then 20 μL ATP Mix (30 mM TRIS/HCl pH 7.5, 0.02% Brij, 0.2 mM sodium orthovanadate, 10 mM magnesium acetate, 0.1 mM EGTA, 1× Phosphatase Inhibitor Cocktail 1 (Sigma, No.: P2850), 50 μM ATP (Sigma, No.: A3377; 15 mM stock solution)) are added. The reaction is started by the addition of 10 μL/well of poly (Glu,Tyr) substrate (25 μg/well poly (Glu,Tyr), 0.05 μg/well biotinylated poly (Glu,Tyr) dissolved in 250 mM TRIS/HCl pH 7.5, 9 mM DTT)—the final concentration of DMSO is 2%. After 1 h kinase reaction (the plates are shaken at 500 rpm), the reaction is stopped by the addition of 12 μL/well of 100 mM EDTA, pH 8. And shaken for a further 5 min at RT (500 U/min).
55 μL of the reaction mixture are transferred into a streptavidin plate (Strepta Well High Bind (transparent, 96-well) made by Roche, No.: 11989685001) and incubated for 1 h at RT (shaking at 500 rpm). Then the microtitre plate is washed three times with 200 μL/well D-PBS (Invitrogen, No.:14190). 100 μL of 1:2000 diluted DELFIA Eu-N1 Anti-Phosphotyrosine PY20 antibody (Perkin Elmer, No.: AD0038, 1:2000 diluted in DELFIA test buffer (Perkin Elmer, No.: 1244-111)) is then added and it is incubated for 1 h at RT (shaking at 500 rpm). Then the plate is washed three times with 200 μL/well DELFIA washing buffer (Perkin Elmer, No.: 1244-114), 200 μL/well strengthening solution (Perkin Elmer, No.: 1244-105) is added and the whole is incubated for 10 min at RT (shaking at 300 rpm).
The time-delayed europium fluorescence is then measured in a microtitre plate reader (Victor, Perkin Elmer). The positive control consists of wells that contain solvent (2% DMSO in test buffer) and display uninhibited kinase activity. Wells that contain test buffer instead of enzyme act as a control for the background kinase activity.
The IC50 values are determined from concentration-activity analyses by iterative calculation using a sigmoidal curve analysis algorithm (FIFTY, based on GraphPAD Prism Version 3.03) with a variable Hill coefficient.

[2] = target: T2, PTK2-phosphorylation at tyrosine 397 (pY397) (Homo sapiens, UniProt Q05397); experiment: Phospho-PTK2 (pY397) Assay in PC-3 cells; format: cell-based; settings: PC-3 prostate carcinoma cells, 2 h incubation; read-out: PC3pPTK2 Y397 EC50
T2 construct: endogenous in cells; host or cells: PC-3 (ATCC CRL-1435)
T2 sequence (Q05397 whole entry): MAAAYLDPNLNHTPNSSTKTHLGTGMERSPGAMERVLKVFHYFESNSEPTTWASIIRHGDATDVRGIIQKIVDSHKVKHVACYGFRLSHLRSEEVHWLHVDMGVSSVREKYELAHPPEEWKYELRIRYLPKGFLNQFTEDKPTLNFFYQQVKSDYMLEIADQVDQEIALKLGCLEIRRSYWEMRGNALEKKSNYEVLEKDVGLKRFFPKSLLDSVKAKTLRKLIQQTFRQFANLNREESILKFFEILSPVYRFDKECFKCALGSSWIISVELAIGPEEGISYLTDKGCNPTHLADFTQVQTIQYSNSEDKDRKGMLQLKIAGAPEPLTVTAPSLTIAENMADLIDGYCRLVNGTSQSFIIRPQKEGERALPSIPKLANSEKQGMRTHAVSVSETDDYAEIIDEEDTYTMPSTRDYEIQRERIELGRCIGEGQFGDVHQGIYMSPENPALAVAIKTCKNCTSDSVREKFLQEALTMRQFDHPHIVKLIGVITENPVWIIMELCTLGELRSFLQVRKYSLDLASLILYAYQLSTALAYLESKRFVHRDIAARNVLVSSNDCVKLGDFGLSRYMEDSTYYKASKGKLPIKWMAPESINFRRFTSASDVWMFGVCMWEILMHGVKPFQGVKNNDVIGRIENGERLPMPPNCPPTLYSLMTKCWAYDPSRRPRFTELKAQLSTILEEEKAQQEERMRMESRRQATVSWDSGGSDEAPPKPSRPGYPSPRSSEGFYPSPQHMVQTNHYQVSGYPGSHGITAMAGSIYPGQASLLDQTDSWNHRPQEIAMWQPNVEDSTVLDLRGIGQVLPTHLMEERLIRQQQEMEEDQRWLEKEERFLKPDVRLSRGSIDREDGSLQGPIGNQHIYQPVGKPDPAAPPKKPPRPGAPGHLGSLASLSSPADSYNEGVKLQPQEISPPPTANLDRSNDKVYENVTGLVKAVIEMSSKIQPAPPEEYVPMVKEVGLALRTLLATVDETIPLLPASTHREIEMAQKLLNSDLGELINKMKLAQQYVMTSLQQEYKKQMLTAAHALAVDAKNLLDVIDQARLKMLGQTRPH
Procedure: This cellular test is used to determine the influence of PTK2-inhibitors on the state of the PTK2-phosphorylation at tyrosine 397 (pY397).
PC-3 cells (prostate carcinoma, ATCC CRL-1435) are grown in cell culture flasks (175 cm^2) with F12 Kaighn's Medium (Gibco, No.: 21127) with the addition of 10% foetal calf serum (Invitrogen, No.: 16000-044). The cultures are incubated in the incubator at 37° C. and 5% CO2 and run twice a week.
For the test, 2×10^4 cells pro well/[…] are plated out in 96-well microtitre plates (Costar, No.: 3598) and incubated overnight in the incubator at 37° C. and 5% CO2. The test compounds (10 μL from serial dilution) are added the next day. The concentration of the test compounds usually covers a range of 50 μM and 0.8 nM. The test compounds (stock solution: 10 mM in 100% DMSO) are diluted in medium/medium 10% DMSO such that the final concentration is 1% DMSO. The cells are then incubated in the incubator at 37° C. and 5% CO2 for 2 h. Then the culture supernatant is removed and the cells are fixed with 150 μL 4% formaldehyde in D-PBS for 20 min at RT. The cell lawn is washed five times with 200 μL 0.1% Triton X-100 in D-PBS for 5 min in each case and then incubated for 90 min with blocking buffer (5% skimmed milk powder (Maresi Fixmilch) in TBST (25 mM Tris/HCl, pH 8.0, 150 mM NaCl, 0.05% Tween 20). The blocking buffer is replaced by 50 μL of the first antibody anti-phospho PTK2 [pY397] rabbit monoclonal (Invitrogen/Biosource, No.: 44-625G), which is diluted 1:200 in blocking buffer. For control purposes, alternatively a PTK2 [total] antibody (clone 4.47 mouse monoclonal, Upstate, No.: 05-537), diluted 1:400 in blocking buffer is used. This incubation is carried out at 4° C. overnight. Then the cell lawn is washed five times with 100 μL of 0.1% Tween in D-PBS for 5 min in each case and 50 μL/well of second antibody are added. In order to detect bound phospho-PTK2 [pY397] antibody a goat-anti-rabbit antibody is used which is coupled with horseradish peroxidase (Dako, No.: P0448; 1:500 dilution in blocking buffer). In order to detect bound PTK2 [total]-antibodies a rabbit-anti-mouse antibody is used, which is also coupled with horseradish peroxidase (Dako, No.: PO161; 1:1000 dilution in blocking buffer). This incubation is carried out for 1 h at RT with gentle shaking. The cell lawn is then again washed five times with 100 μL of 0.1% Tween in D-PBS for 5 min in each case. […] The EC50 values are determined from concentration-activity analyses by iterative calculation with the aid of a sigmoidal curve analysis algorithm (FIFTY, based on GraphPAD Prism Version 3.03) with a variable Hill coefficient.

T1 sequence (Q05397 whole entry): as above

Row | Compound | IC50 [1] [nM] | EC50 [2] [nM]
1 | Cc1ccc(CNc2nc(Nc3ccc(C(=O)N[C@H]4CC[C@H](N5CCOCC5)CC4)cc3F)ncc2C(F)(F)F)c(N(C)S(C)(=O)=O)c1 [Example 92] | 1 | 2
2 | COc1ccc(CNc2nc(Nc3cc(F)c(C(=O)N[C@H]4CCN(C)C4)cc3OC)ncc2C(F)(F)F)c(N(C)S(C)(=O)=O)c1 [Example 29] | 2 | 0.29
3 | CC(=O)Nc1ccc(Nc2ncc(C(F)(F)F)c(NCc3ccc(C)cc3N(C)S(C)(=O)=O)n2)cc1C [Example 117] | 0.85 | 3
4 | COc1cc(C(=O)NC2CCN(C3CCCCC3)CC2)ccc1Nc1ncc(C(F)(F)F)c(NCc2ccc(C)cc2N(C)S(C)(=O)=O)n1 [Example 16] | 4 | 0.19
5 | COc1cc(C(=O)NCC2CCCO2)ccc1Nc1ncc(C(F)(F)F)c(NCc2ccc(C)cc2N(C)S(C)(=O)=O)n1 (stereo not shown) [Example 70] | 4 | 0.74
6 | COc1cc(C(=O)N[C@H]2CCCN(C3CCOCC3)C2)ccc1Nc1ncc(C(F)(F)F)c(NCc2ccc(C)cc2N(C)S(C)(=O)=O)n1 [Example 53] | 5 | 0.54
7 | COc1cc(CNC2CCN(C)CC2)ccc1Nc1ncc(C(F)(F)F)c(NCc2ccc(C)cc2N(C)S(C)(=O)=O)n1 [Example 59] | 3 | 0.59
8 | COc1cc(C(=O)NCCN2CCCCC2)ccc1Nc1ncc(C(F)(F)F)c(NCc2ccc(C)cc2N(C)S(C)(=O)=O)n1 [Example 20] | 2 | 0.22
9 | CCN1CCC(NC(=O)c2ccc(Nc3ncc(C(F)(F)F)c(NCc4ccc(C)cc4N(C)S(C)(=O)=O)n3)c(OC)c2)CC1 [Example 8] | 2 | 0.14
10 | COC(=O)Nc1cc(OC)c(Nc2ncc(C(F)(F)F)c(NCc3ccc(C)cc3N(C)S(C)(=O)=O)n2)cc1C [Example 124] | 5 | 3
11 | COc1cc(CNC2CCOCC2)ccc1Nc1ncc(C(F)(F)F)c(NCc2ccc(C)cc2N(C)S(C)(=O)=O)n1 [Example 35] | 3 | 0.31
12 | COc1cc(NC(C)=O)c(C)cc1Nc1ncc(C(F)(F)F)c(NCc2ccc(C)cc2N(C)S(C)(=O)=O)n1 [Example 68] | 2 | 0.72
13 | COc1cc(CNC2CCCC2)ccc1Nc1ncc(C(F)(F)F)c(NCc2ccc(C)cc2N(C)S(C)(=O)=O)n1 [Example 63] | 3 | 0.63
14 | COc1cc(C(=O)NC2CCN3CCCC3C2)ccc1Nc1ncc(C(F)(F)F)c(NCc2ccc(C)cc2N(C)S(C)(=O)=O)n1 (stereo not shown) [Example 49] | 4 | 0.51
15 | COc1cc(C(=O)NC2CCCN(C)C2)ccc1Nc1ncc(C(F)(F)F)c(NCc2ccc(C)cc2N(C)S(C)(=O)=O)n1 (stereo not shown) [Example 7] | 3 | 0.14
16 | COc1cc(N2CCN(CC(=O)N(C)C)CC2)ccc1Nc1ncc(C(F)(F)F)c(NCc2ccc(F)cc2N(C)S(C)(=O)=O)n1 [Example 82] | 2 | 1
17 | COc1cc(C(=O)NC2CCN(C3CC3)CC2)ccc1Nc1ncc(C(F)(F)F)c(NCc2ccc(C)cc2N(C)S(C)(=O)=O)n1 [Example 38] | 4 | 0.35
18 | COc1cc(C(=O)NC2CCN(C)CC2)ccc1Nc1ncc(C(F)(F)F)c(NCc2ccc(C)cc2N(C)S(C)(=O)=O)n1 [Example 73, 4-{4-[2-(methanesulphonyl-methyl-amino)-4-methyl-benzylamino]-5-trifluoromethyl-pyrimidin-2-ylamino}-3-methoxy-N-(1-methyl-piperidin-4-yl)-benzamide] | 1 | 0.77
19 | COc1cc(C(=O)N[C@@H]2CCN(C)C2)c(F)cc1Nc1ncc(C(F)(F)F)c(NCc2ccc(C)cc2N(C)S(C)(=O)=O)n1 [Example 36] | 2 | 0.32
20 | COc1cc(C(=O)NC2CCN(c3ccccc3)CC2)ccc1Nc1ncc(C(F)(F)F)c(NCc2ccc(C)cc2N(C)S(C)(=O)=O)n1 [Example 55] | 11 | 0.56
21 | COc1cc(N2CCN(CC(=O)N(C)C)CC2)ccc1Nc1ncc(C(F)(F)F)c(NCc2ccc(C)cc2N(C)S(C)(=O)=O)n1 [Example 33] | 2 | 0.3
22 | CCc1cc(C(=O)NC)ccc1Nc1ncc(C(F)(F)F)c(NCc2ccc(C)cc2N(C)S(C)(=O)=O)n1 [Example 121] | 2 | 3
23 | COc1cc(C(=O)N[C@@H]2CCCN(C3CCC3)C2)ccc1Nc1ncc(C(F)(F)F)c(NCc2ccc(C)cc2N(C)S(C)(=O)=O)n1 [Example 86] | 3 | 1
24 | COc1cc(C(=O)NC2CCN(CC3CC3)CC2)ccc1Nc1ncc(C(F)(F)F)c(NCc2ccc(C)cc2N(C)S(C)(=O)=O)n1 [Example 30] | 4 | 0.29
25 | COc1cc(C(=O)NCCn2ccnc2)ccc1Nc1ncc(C(F)(F)F)c(NCc2ccc(C)cc2N(C)S(C)(=O)=O)n1 [Example 13] | 2 | 0.16
26 | COc1cc(C(N)=O)c(Br)cc1Nc1ncc(C(F)(F)F)c(NCc2ccc(C)cc2N(C)S(C)(=O)=O)n1 [Example 34] | 3 | 0.31
27 | COc1cc(C(=O)NC2CCC(N(C)C)CC2)ccc1Nc1ncc(C(F)(F)F)c(NCc2ccc(C)cc2N(C)S(C)(=O)=O)n1 (stereo not shown) [Example 51] | 1 | 0.53
28 | CCN(CC)CCNC(=O)c1ccc(Nc2ncc(C(F)(F)F)c(NCc3ccc(C)cc3N(C)S(C)(=O)=O)n2)c(OC)c1 [Example 12] | 2 | 0.16
29 | COc1ccc(CNc2nc(Nc3ccc(C(=O)N[C@H]4CC[C@H](N5CCOCC5)CC4)cc3OC)ncc2C(F)(F)F)c(N(C)S(C)(=O)=O)c1 [Example 57] | 2 | 0.57
